Test results published in patent US20190151312A1, “HEPARAN SULFATE BIOSYNTHESIS INHIBITORS FOR THE TREATMENT OF DISEASES” (BioMarin Pharmaceutical Inc., priority 2014, published 2019).

tested on: GM01896 cells (MPS II dermal fibroblasts); test: Assay 1: MPS cellular assay, MPS II (heparan sulfate disaccharide biomarkers by LC-MS); type: cell-based, human; conditions: Assay 1 for MPS II, heparan sulfate disaccharide biomarkers (I2a4, I2a6, I2S0 and/or I2S6), read-out: IC50 Range
How it was run: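 Heparan sulfate disaccharide biomarkers quantified by LC-MS after heparinase I/II/III digestion and isotopic aniline labelling, using GM01896 MPS II fibroblasts exposed to compound (at or below 30 μM, 4-21 days). Values given as IC50 by curve fitting; cell viability checked with alamar blue or ATP.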

SMILES | IC50
CN(C)C(=O)c1ccc(Nc2cc(-c3ccc4cnn(C)c4c3)nc(N3CCOCC3)n2)cc1 [N,N-dimethyl(4-{[6-(1-methyl(1H-indazol-6-yl))-2-morphlin-4-ylpyrimidin-4-yl]amino}phenyl)carboxamide] | 0.5 to 1 µM
Cn1c(=O)n(C)c2cc(-c3cc(Nc4ccc(Cl)cc4)nc(N4CCOCC4)n3)ccc21 [5-{6-[(4-chlorophenyl)amino]-2-morpholin-4-ylpyrimidin-4-yl}-1,3-dimethyl-3-hydrobenzimidazol-2-one] | < 0.5 µM
Cn1c(=O)n(CCN2CCOCC2)c2ccc(-c3cc(Nc4ccc(Cl)cc4)nc(N4CCOCC4)n3)cc21 [5-{6-[(4-chlorophenyl)amino]-2-morpholin-4-ylpyrimidin-4-yl}-3-methyl-1-(2-morpholin-4-ylethyl)-3-hydrobenzimidazol-2-one] | 0.5 to 1 µM
Cn1nc(CCN2CCOCC2)c2ccc(-c3cc(Nc4ccc(-n5cccn5)cc4)nc(N4CCOCC4)n3)cc21 [{6-[1-methyl-3-(2-morpholin-4-ylethyl)(1H-indazol-6-yl)]-2-morpholin-4-ylpyrimidin-4-yl}(4-pyrazolylphenyl)amine] | < 0.5 µM
Cc1ccn(-c2ccc(Nc3cc(-c4ccc5c(C)nn(C)c5c4)nc(N4CCOCC4)n3)cc2)n1 [[6-(1,3-dimethyl(1H-indazol-6-yl))-2-morpholin-4-ylpyrimidin-4-yl][4-(3-methylpyrazolyl)phenyl]amine] | < 0.5 µM

same assay, conditions: Homo sapiens, Fibroblast, Assay 1 for MPS II, heparan sulfate disaccharide biomarkers (I2a4, I2a6, I2S0 and/or I2S6), read-out: IC50 Range

SMILES | IC50
Cn1nc(CCN2CCOCC2)c2ccc(-c3cc(Nc4ccc5cc[nH]c5c4)nc(N4CCOCC4)n3)cc21 [indol-6-yl{6-[1-methyl-3-(2-morpholin-4-ylethyl)(1H-indazol-6-yl)]-2-morpholin-4-ylpyrimidin-4-yl}amine] | 0.5 to 1 µM
Cc1nc2ccc(-c3cc(Nc4ccc(Cl)cc4)nc(N4CCOCC4)n3)cc2n1C1CC1 [(4-chlorophenyl)[6-(1-cyclopropyl-2-methylbenzimidazol-6-yl)-2-morpholin-4-ylpyrimidin-4-yl]amine] | 0.5 to 1 µM
Cc1nc2cc(-c3cc(Nc4ccc(Cl)cc4)nc(N4CCOCC4)n3)ccc2n1C1CCC1 [(4-chlorophenyl)[6-(1-cyclobutyl-2-methylbenzimidazol-5-yl)-2-morpholin-4-ylpyrimidin-4-yl]amine] | 1 to 5 µM
Cn1ncc2ccc(-c3cc(Nc4ccc5cc[nH]c5c4)nc(N4CCOCC4)n3)cc21 [indol-6-yl[6-(1-methyl(1H-indazol-6-yl))-2-morpholin-4-ylpyrimidin-4-yl]amine] | 1 to 5 µM
COCCn1ncc2ccc(-c3cc(Nc4ccc(Cl)cc4)nc(N4CCOCC4)n3)cc21 [(4-chlorophenyl){6-[1-(2-methoxyethyl)(1H-indazol-6-yl)]-2-morpholin-4-ylpyrimidin-4-yl}amine] | 1 to 5 µM
Cn1cc(-c2ccc(Nc3cc(-c4ccc5cnn(C)c5c4)nc(N4CCOCC4)n3)cc2)nn1 [[4-(1-methyl(1,2,3-triazol-4-yl))phenyl][6-(1-methyl(1H-indazol-6-yl))-2-morpholin-4-ylpyrimidin-4-yl]amine] | 1 to 5 µM
CNC(=O)c1ccc(Nc2cc(-c3ccc4nc(C)n(C5CC5)c4c3)nc(N3CCOCC3)n2)cc1 [(4-{[6-(1-cyclopropyl-2-methylbenzimidazol-6-yl)-2-morpholin-4-ylpyrimidin-4-yl]amino}phenyl)-N-methylcarboxamide] | < 0.5 µM
Cn1c(CN2CCCC2)nc2ccc(-c3cc(Nc4ccc(Cl)cc4)nc(N4CCOCC4)n3)cc21 [(4-chlorophenyl){6-[1-methyl-2-(pyrrolidinylmethyl)benzimidazol-6-yl]-2-morpholin-4-ylpyrimidin-4-yl}amine] | 1 to 5 µM
Cn1cnc2ccc(-c3cc(Nc4ccc(C(N)=O)cc4)nc(N4CCOCC4)n3)cc21 [4-{[6-(1-methylbenzimidazol-6-yl)-2-morpholin-4-ylpyrimidin-4-yl]amino}benzamide] | 0.5 to 1 µM
COC(=O)c1ccc(Nc2cc(-c3ccc4cnn(CCCN5CCOCC5)c4c3)nc(N3CCOCC3)n2)cc1 [methyl 4-({2-morpholin-4-yl-6-[1-(3-morpholin-4-ylpropyl)(1H-indazol-6-yl)]pyrimidin-4-yl}amino)benzoate] | 0.5 to 1 µM
CCn1ccc2ccc(Nc3cc(-c4ccc5cnn(C)c5c4)nc(N4CCOCC4)n3)cc21 [(1-ethylindol-6-yl)[6-(1-methyl(1H-indazol-6-yl))-2-morpholin-4-ylpyrimidin-4-yl]amine] | 1 to 5 µM
Clc1ccc(Nc2cc(-c3cccc4[nH]ncc34)nc(N3CCOCC3)n2)cc1 [N-(4-chlorophenyl)-6-(1H-indazol-4-yl)-2-morpholinopyrimidin-4-amine] | 0.5 to 1 µM
Cc1nn(-c2ccc(Nc3cc(-c4ccc5c(C)nn(C)c5c4)nc(N4CCOCC4)n3)cc2)nc1C [[4-(4,5-dimethyl(1,2,3-triazol-2-yl))phenyl][6-(1,3-dimethyl(1H-indazol-6-yl))-2-morpholin-4-ylpyrimidin-4-yl]amine] | 1 to 5 µM
CC(C)NC(=O)c1ccc(Nc2cc(-c3ccc4cnn(C)c4c3)nc(N3CCOCC3)n2)cc1 [(4-{[6-(1-methyl(1H-indazol-6-yl))-2-morpholin-4-ylpyrimidin-4-yl]amino}phenyl)-N-(methylethyl)carboxamide] | 0.5 to 1 µM
CNC(=O)c1ccc(Nc2cc(-c3ccc4cnn(CCOC)c4c3)nc(N3CCOCC3)n2)cc1 [[4-({6-[1-(2-methoxyethyl)(1H-indazol-6-yl)]-2-morpholin-4-ylpyrimidin-4-yl}amino)phenyl]-N-methylcarboxamide] | < 0.5 µM
Cc1nnc(-c2ccc(Nc3cc(-c4ccc5c(C)nn(C)c5c4)nc(N4CCOCC4)n3)cc2)[nH]1 [[6-(1,3-dimethyl(1H-indazol-6-yl))-2-morpholin-4-ylpyrimidin-4-yl][4-(5-methyl(4H-1,2,4-triazol-3-yl))phenyl]amine] | < 0.5 µM

SMILES | IC50
CN(C)CCn1ncc2ccc(-c3cc(Nc4ccc(Cl)cc4)nc(N4CCOCC4)n3)cc21 [[2-(6-{6-[(4-chlorophenyl)amino]-2-morpholin-4-ylpyrimidin-4-yl}(1H-indazolyl))ethyl]dimethylamine] | 0.5 to 1 µM
Cn1ccc2ccc(Nc3cc(-c4ccc5c(CCCN6C(=O)c7ccccc7C6=O)nn(C)c5c4)nc(N4CCOCC4)n3)cc21 [2-[3-(1-methyl-6-{6-[(1-methylindol-6-yl)amino]-2-morpholin-4-ylpyrimidin-4-yl}-1H-indazol-3-yl)propyl]benzo[c]azoline-1,3-dione] | < 0.5 µM
CNC(=O)c1ccc(Nc2cc(-c3ccc4nc(C)n(CC5CC5)c4c3)nc(N3CCOCC3)n2)cc1 [[4-({6-[1-(cyclopropylmethyl)-2-methylbenzimidazol-6-yl]-2-morpholin-4-ylpyrimidin-4-yl}amino)phenyl]-N-methylcarboxamide] | < 0.5 µM
Cn1ncc2ccc(-c3cc(Nc4ccc(-c5ncon5)cc4)nc(N4CCOCC4)n3)cc21 [[6-(1-methyl(1H-indazol-6-yl))-2-morpholin-4-ylpyrimidin-4-yl](4-(1,2,4-oxadiazol-3-yl)phenyl)amine] | 0.5 to 1 µM
Cc1nc2ccc(-c3cc(Nc4ccc(Cl)cc4)nc(N4CCOCC4)n3)cc2n1CCN1CCOCC1 [(4-chlorophenyl){6-[2-methyl-1-(2-morpholin-4-ylethyl)benzimidazol-6-yl]-2-morpholin-4-ylpyrimidin-4-yl}amine] | 0.5 to 1 µM
Cc1nn(C)c2cc(-c3cc(Nc4ccc5ncn(C)c5c4)nc(N4CCOCC4)n3)ccc12 [[6-(1,3-dimethyl(1H-indazol-6-yl))-2-morpholin-4-ylpyrimidin-4-yl](1-methylbenzimidazol-6-yl)amine] | 1 to 5 µM
Cn1cc2ccc(Nc3cc(-c4ccc5cnn(C)c5c4)nc(N4CCOCC4)n3)cc2n1 [[6-(1-methyl(1H-indazol-6-yl))-2-morpholin-4-ylpyrimidin-4-yl](2-methyl(2H-indazol-6-yl))amine] | 1 to 5 µM
Cn1cnc(-c2ccc(Nc3cc(-c4ccc5cnn(C)c5c4)nc(N4CCOCC4)n3)cc2)c1 [[6-(1-methyl(1H-indazol-6-yl))-2-morpholin-4-ylpyrimidin-4-yl][4-(1-methylimidazol-4-yl)phenyl]amine] | 0.5 to 1 µM
Cc1cnn(-c2ccc(Nc3cc(-c4ccc5c(CCN6CCOCC6)nn(C)c5c4)nc(N4CCOCC4)n3)cc2)n1 [[4-(4-methyl(1,2,3-triazol-2-yl))phenyl]{6-[1-methyl-3-(2-morpholin-4-ylethyl)(1H-indazol-6-yl)]-2-morpholin-4-ylpyrimidin-4-yl}amine] | < 0.5 µM
Cc1nn(C)c2cc(-c3cc(Nc4ccc5cc[nH]c5c4)nc(N4CCOCC4)n3)ccc12 [[6-(1,3-dimethyl(1H-indazol-6-yl))-2-morpholin-4-ylpyrimidin-4-yl]indol-6-ylamine] | 0.5 to 1 µM
CC(C)NC(=O)c1ccc(Nc2cc(-c3ccc4ncn(C)c4c3)nc(N3CCOCC3)n2)cc1 [(4-{[6-(1-methylbenzimidazol-6-yl)-2-morpholin-4-ylpyrimidin-4-yl]amino}phenyl)-N-(methylethyl)carboxamide] | 1 to 5 µM
CNC(=O)c1ccc(Nc2cc(-c3ccc4c(c3)ncn4C)nc(N3CCOCC3)n2)cn1 [N-methyl(5-{[6-(1-methylbenzimidazol-5-yl)-2-morpholin-4-ylpyrimidin-4-yl]amino}(2-pyridyl))carboxamide] | 0.5 to 1 µM
Clc1ccc(Nc2cc(-c3ccc4c(c3)ncn4C3COC3)nc(N3CCOCC3)n2)cc1 [(4-chlorophenyl)[2-morpholin-4-yl-6-(1-oxetan-3-ylbenzimidazol-5-yl)pyrimidin-4-yl]amine] | 0.5 to 1 µM
Cn1ncc2ccc(-c3cc(Nc4ccc(Cl)cc4)nc(N4CCOCC4)n3)cc21 [(4-chlorophenyl)[6-(1-methyl(1H-indazol-6-yl))-2-morpholin-4-ylpyrimidin-4-yl]amine] | 0.5 to 1 µM
Cc1nc2cc(-c3cc(Nc4ccc(Cl)cc4)nc(N4CCOCC4)n3)ccc2n1CCN1CCCC1 [(4-chlorophenyl){6-[2-methyl-1-(2-pyrrolidinylethyl)benzimidazol-5-yl]-2-morpholin-4-ylpyrimidin-4-yl}amine] | 0.5 to 1 µM
